According to patent US5654318A, “Bicyclic amine derivatives” (Daiichi Pharmaceutical Co., Ltd., priority 1992, dated 1997):
In brackets after ≈: the same amount, converted by molar mass.

Columns and labels:
[1] = system: Str. faecalis, ATCC 19433; test: Antibacterial activity (MIC), Str. faecalis, ATCC 19433; type: cell-based; settings: Enterococcus faecalis, ATCC19433
Method: (§1) The present invention will now be illustrated by way of Formulation Examples, Reference Examples, and Examples, but the present invention should not be construed as being limited thereto. All the percents are by weight unless otherwise indicated. The antibacterial activity assays were performed by the method specified by Japan Society of Chemotherapy (Chemotherapy 29(1), 76 (1981), and the results are summarized in Table 1 in terms of minimum inhibitory concentration (MIC).

Str. pyogenes, G-36 = test: Antibacterial activity (MIC), Str. pyogenes, G-36; type: cell-based; settings: Streptococcus pyogenes, G36
Method: as §1

E. coli NIHJ = test: Antibacterial activity (MIC), E. coli NIHJ; type: cell-based; settings: Escherichia coli
Method: as §1

S. aureus, Smith = test: Antibacterial activity (MIC), S. aureus, Smith; type: cell-based; settings: Staphylococcus aureus
Method: as §1

Pr. mirabiris, IFO-3849 = test: Antibacterial activity (MIC), Pr. mirabiris, IFO-3849; type: cell-based
Method: as §1

Ps. aeruginosa, 32104 = test: Antibacterial activity (MIC), Ps. aeruginosa, 32104; type: cell-based; settings: Pseudomonas aeruginosa
Method: as §1

S. aureus, 209P = test: Antibacterial activity (MIC), S. aureus, 209P; type: cell-based; settings: Staphylococcus aureus
Method: as §1

Ser. marcescens, 10100 = test: Antibacterial activity (MIC), Ser. marcescens, 10100; type: cell-based; settings: Serratia marcescens
Method: as §1

Ps. aeruginosa, 32121 = test: Antibacterial activity (MIC), Ps. aeruginosa, 32121; type: cell-based; settings: Pseudomonas aeruginosa
Method: as §1

S. flexneli, 2A, 5503 = test: Antibacterial activity (MIC), S. flexneli, 2A, 5503; type: cell-based
Method: as §1

S. epidermidis, 56500 = test: Antibacterial activity (MIC), S. epidermidis, 56500; type: cell-based; settings: Staphylococcus epidermidis
Method: as §1

Pr. vulgaris, 08601 = test: Antibacterial activity (MIC), Pr. vulgaris, 08601; type: cell-based; settings: Proteus vulgaris
Method: as §1

[2] = pH 7.4

Partition Coefficient p' [2] | Compound | MIC [1] [µg/mL] | MIC (Str. pyogenes, G-36) [µg/mL] | MIC (E. coli NIHJ) [µg/mL] | MIC (S. aureus, Smith) [µg/mL] | MIC (Pr. mirabiris, IFO-3849) [µg/mL] | MIC (Ps. aeruginosa, 32104) [µg/mL] | MIC (S. aureus, 209P) [µg/mL] | MIC (Ser. marcescens, 10100) [µg/mL] | MIC (Ps. aeruginosa, 32121) [µg/mL] | MIC (S. flexneli, 2A, 5503) [µg/mL] | MIC (S. epidermidis, 56500) [µg/mL] | MIC (Pr. vulgaris, 08601) [µg/mL]
 | Nc1c(F)c(N2C[C@@H]3CCCN[C@@H]3C2)c(F)c2c1c(=O)c(C(=O)O)cn2[C@@H]1C[C@@H]1F [Ex. 3, 5-Amino-7-[(S,S)-2,8-diazabicyclo[4.3.0]nonan-8-yl]-6,8-difluoro-1-[(1R,2S)-2-fluorocyclopropyl]-1,4-dihydro-4-oxoquinoline-3-carboxylic acid] | 0.1 (≈ 0.237 µM) | 0.1 (≈ 0.237 µM) | 0.006 (≈ 0.0142 µM) | 0.006 (≈ 0.0142 µM) | 0.05 (≈ 0.118 µM) | 0.05 (≈ 0.118 µM) | 0.025 (≈ 0.0592 µM) | 0.05 (≈ 0.118 µM) | 0.05 (≈ 0.118 µM) | 0.013 (≈ 0.0308 µM) | 0.025 (≈ 0.0592 µM) | 0.025 (≈ 0.0592 µM)
112 | O=C(O)c1cn(C2CC2)c2c(Cl)c(N3C[C@H]4NCCO[C@@H]4C3)c(F)cc2c1=O (relative stereo) [Compound A, 8-chloro-1-cyclopropyl-6-fluoro-1,4-dihydro-7-(trans-2-oxa-5,8-diazabicyclo[4.3.0]nonan8-yl)-4-oxo-3-quinoline-3-carboxylic acid, reference compound] |  |  |  |  |  |  |  |  |  |  |  | 
35.8 | O=C(O)c1cn(C2CC2)c2c(Cl)c(N3C[C@@H]4CCCN[C@@H]4C3)c(F)cc2c1=O [Bay y 3118, reference compound] |  |  |  |  |  |  |  |  |  |  |  | 
24.8 | O=C(O)c1cn([C@@H]2C[C@@H]2F)c2c(Cl)c(N3C[C@H]4NCCO[C@@H]4C3)c(F)cc2c1=O (mixture of isomers) [Ex. 8, (-)-8-Chloro-6-fluoro-1-[(1R,2S)-2-fluorocyclopropyl]-7-[trans-2-oxa-5,8-diazabicyclo[4.3.0]nonan-8-yl]-1,4-dihydro-4-oxoquinoline-3-carboxylic acid] |  |  |  |  |  |  |  |  |  |  |  | 
26.9 | O=C(O)c1cn([C@@H]2C[C@@H]2F)c2c(Cl)c(N3C[C@H]4NCCO[C@@H]4C3)c(F)cc2c1=O (mixture of isomers) [Ex. 7, (+)-8-Chloro-6-fluoro-1-[(1R,2S)-2-fluorocyclopropyl]-7-[trans-2-oxa-5,8-diazabicyclo[4.3.0]-nonan-8-yl]-1,4-dihydro-4-oxoquinoline-3-carboxylic acid] |  |  |  |  |  |  |  |  |  |  |  | 
 | O=C(O)c1cn([C@@H]2C[C@@H]2F)c2c(Cl)c(N3CC4=C(CNC4)C3)c(F)cc2c1=O [Ex. 6, 8-Chloro-7-[3,7-diazabicyclo[3.3.0]oct-1(5)-ene-3-yl]-6-fluoro-1-[(1R,2S)-2-fluorocyclopropyl]-1,4-dihydro-4-oxoquinoline-3-carboxylic acid] | 0.39 (≈ 0.956 µM) | 0.1 (≈ 0.245 µM) | 0.025 (≈ 0.0613 µM) | 0.013 (≈ 0.0319 µM) | 0.05 (≈ 0.123 µM) | 0.2 (≈ 0.49 µM) | 0.025 (≈ 0.0613 µM) | 0.2 (≈ 0.49 µM) | 0.1 (≈ 0.245 µM) | 0.013 (≈ 0.0319 µM) | 0.1 (≈ 0.245 µM) | 0.013 (≈ 0.0319 µM)
 | Nc1c(F)c(N2C[C@H]3NCCO[C@@H]3C2)c(F)c2c1c(=O)c(C(=O)O)cn2[C@@H]1C[C@@H]1F (mixture of isomers) [Ex. 9, 5-Amino-6,8-difluoro-1-[(1R,2S)-2-fluorocyclopropyl]-7-(trans-2-oxa-5,8-diazabicyclo[4.3.0]nonan-8-yl) -1,4-dihydro-4-oxoquinoline-3-carboxylic acid] | 0.1 | 0.2 | 0.006 | 0.006 | 0.05 | 0.2 | 0.013 | 0.1 | 0.05 | 0.013 | 0.025 | 0.025

Compound | Partition Coefficient p' [2] | MIC [1] [µg/mL] | MIC (Str. pyogenes, G-36) [µg/mL] | MIC (E. coli NIHJ) [µg/mL] | MIC (S. aureus, Smith) [µg/mL] | MIC (Pr. mirabiris, IFO-3849) [µg/mL] | MIC (Ps. aeruginosa, 32104) [µg/mL] | MIC (S. aureus, 209P) [µg/mL] | MIC (Ser. marcescens, 10100) [µg/mL] | MIC (Ps. aeruginosa, 32121) [µg/mL] | MIC (S. flexneli, 2A, 5503) [µg/mL] | MIC (S. epidermidis, 56500) [µg/mL] | MIC (Pr. vulgaris, 08601) [µg/mL]
O=C(O)c1cn([C@@H]2C[C@@H]2F)c2c(F)c(N3C[C@@H]4CCCN[C@@H]4C3)c(F)cc2c1=O [Ex. 5, 7-[(S,S)-2,8-diazabicyclo[4.3.0]nonan-8-yl]-6,8-difluoro-1-[(1R,2S)-2-fluorocyclopropyl]-1,4-dihydro-4-oxoquinoline-3-carboxylic acid] | 5.84 | 0.2 (≈ 0.491 µM) | 0.1 (≈ 0.245 µM) | 0.013 (≈ 0.0319 µM) | 0.013 (≈ 0.0319 µM) | 0.05 (≈ 0.123 µM) | 0.1 (≈ 0.245 µM) | 0.025 (≈ 0.0614 µM) | 0.05 (≈ 0.123 µM) | 0.05 (≈ 0.123 µM) | 0.013 (≈ 0.0319 µM) | 0.1 (≈ 0.245 µM) | 0.013 (≈ 0.0319 µM)
Cc1c(N2C[C@@H]3CCCN[C@@H]3C2)c(F)cc2c(=O)c(C(=O)O)cn([C@@H]3C[C@@H]3F)c12 [Ex. 4, 7-[(S,S)-2,8-diazabicyclo[4.3.0]nonan-8-yl]-6-fluoro-1-[(1R,2S)-2-fluorocyclopropyl]-8-methyl-1,4-dihydro-4-oxoquinoline-3-carboxylic acid] | 3.73 | 0.2 (≈ 0.496 µM) | 0.1 (≈ 0.248 µM) | 0.013 (≈ 0.0322 µM) | 0.013 (≈ 0.0322 µM) | 0.05 (≈ 0.124 µM) | 0.1 (≈ 0.248 µM) | 0.025 (≈ 0.062 µM) | 0.05 (≈ 0.124 µM) | 0.05 (≈ 0.124 µM) | 0.025 (≈ 0.062 µM) | 0.05 (≈ 0.124 µM) | 0.025 (≈ 0.062 µM)
O=C(O)c1cn([C@@H]2C[C@@H]2F)c2c(Cl)c(N3C[C@@H]4CCCN[C@@H]4C3)c(F)cc2c1=O [Ex. 2, 8-Chloro-7-([S,S]-2,8-diazabicyclo[4.3.0]nonan-8-yl)-8-chloro-6-fluoro-1-[(1R,2S)-2-fluorocyclopropyl]-1,4-dihydro-4-oxoquinoline-3-carboxylic Acid] | 6.69 | 0.1 (≈ 0.236 µM) | 0.05 (≈ 0.118 µM) | ≤ 0.003 | 0.006 (≈ 0.0142 µM) | 0.025 (≈ 0.059 µM) | 0.05 (≈ 0.118 µM) | 0.013 (≈ 0.0307 µM) | 0.025 (≈ 0.059 µM) | 0.05 (≈ 0.118 µM) | 0.006 (≈ 0.0142 µM) | 0.05 (≈ 0.118 µM) | 0.013 (≈ 0.0307 µM)
